Data published in paper PMC3251254, “Mini-PEG spacering of VAP-1-targeting ^68Ga-DOTAVAP-P1 peptide improves PET imaging of inflammation” (EJNMMI Research, 2011).
Where two headings read alike, the source gives them in different places. Residues, ends and D or L forms follow the SMILES beside them. *: point of attachment. DOTA = O=C(O)CN1CCN(CC(=O)O)CCN(CC(=O)*)CCN(CC(=O)O)CC1; AEEA = NCCOCCOCC(=O)O

Columns and labels:
[1] = in vivo, iv; for AUC / CL / blood-plasma ratio / metabolic half-life / plasma free fraction (fp): rat
Experimental: Blood samples (0.2 ml of each) were drawn at 5, 10, 15, 30, 45, 60 and 120 min after injection of ^68Ga-DOTA-peptides into heparinised tubes (Microvette 100; Sarstedt, Nümbrecht, Germany). Radioactivity of whole blood was measured with the gamma counter (Wizard, EG&G Wallac). Plasma was separated by centrifugation (2,200 × g for 5 min at 4°C), and plasma radioactivity was measured. The ratio of radioactivity in blood versus plasma was calculated. To determine plasma protein binding, proteins were precipitated with 10% sulphosalicylic acid, and the radioactivity in protein precipitate and supernatant was measured. The plasma supernatant was further analysed by radio-HPLC in order to evaluate the in vivo stability of the ^68Ga-labelled peptides.
In vivo stability data were used in order to generate metabolite-corrected plasma TACs for ^68Ga-DOTAVAP-P1 and ^68Ga-DOTAVAP-PEG-P1, which were further used for the calculation of pharmacokinetic parameters. The area under curve (AUC) of the plasma TAC from 0 to infinity was calculated using a non-compartmental analysis employing the trapezoidal rule. The clearance (CL) of the ^68Ga-labelled peptides after a single intravenous bolus dose was calculated by dividing the injected dose by the AUC. The plot of the natural logarithm of parent tracer concentration against time after bolus injection became linear in the end phase, as the tracer was eliminated according to the laws of first-order reaction kinetics. The elimination rate constant (kel) was calculated as the negative slope of the linear part of the plot. The plasma elimination half-life (t1/2) was calculated as t1/2 = ln(2)/kel. The metabolic half-lives of the ^68Ga-DOTA-peptides were calculated according to the results of radio-HPLC, i.e. the time point when 50% of the total radioactivity is still bound to the intact peptide.

[2] = type: in vitro ADME; conditions: plasma
Experimental: The in vitro stability of the ^68Ga-labelled peptides was evaluated in human and rat plasma. Several samples were taken during the 4-h incubation period at 37°C. Proteins from plasma samples were precipitated with 10% sulphosalicylic acid (1:1 v/v), centrifuged at 3,900 × g for 3 min at 4°C, and filtered through 0.45-μm Minispike filter (Waters Corporation). The filtrate was analysed by radio-HPLC.

| proportion of unchanged peptide in rat plasma at 60 min after injection [1] [%] | proportion of unchanged peptide in rat plasma at 120 min after injection [1] [%] | AUC [1] | CL [1] [mL/min] | blood-plasma ratio [1] | metabolic half-life [1] [h] | plasma free fraction (fp) [1] | remaining at 4 h ([2]; human) [%] | remaining at 4 h ([2]; rat) [%] | SMILES |
| --- | --- | --- | --- | --- | --- | --- | --- | --- | --- |
| 76 ± 18 | 49 ± 6 | 2,400 ± 68 min*kBq/ml | 0.008 ± 0.002 | 1.3 ± 0.1 | 2.08 | 0.86 ± 0.02 | 89 ± 8 | 90 ± 6 | NCCCC[C@H](NC(=O)CNC(=O)CNC(=O)CNC(=O)CNC(=O)COCCOCCNC(=O)CN1CCN(CC(=O)O)CCN(CC(=O)O)CCN(CC(=O)O)CC1)C(=O)NCC(=O)NCC(=O)NCC(=O)NCC(=O)O [^68Ga-DOTAVAP-PEG-P1, metal not drawn] ({DOTA-AEEA}-GGGGKGGGG-OH) |
| 19 ± 4 | 4 ± 1 | 950 ± 170 min*kBq/ml | 0.017 ± 0.001 | 1.3 ± 0.1 | 0.4 | 0.84 ± 0.04 | 88 ± 3 | 82 ± 11 | NCCCC[C@H](NC(=O)CNC(=O)CNC(=O)CNC(=O)CNC(=O)CN1CCN(CC(=O)O)CCN(CC(=O)O)CCN(CC(=O)O)CC1)C(=O)NCC(=O)NCC(=O)NCC(=O)NCC(=O)O [^68Ga-DOTAVAP-P1, metal not drawn] ({DOTA}-GGGGKGGGG-OH) |
